# Molecular target: T1, 5-lipoxygenase (Rattus norvegicus, UniProt P12527)
# T1 construct: 20,000×g supernatant from homogenized RBL-1 cells; endogenous in cells; host or cells: RBL-1 cells (20,000×g supernatant of homogenate)
# T1 sequence (P12527 1-673): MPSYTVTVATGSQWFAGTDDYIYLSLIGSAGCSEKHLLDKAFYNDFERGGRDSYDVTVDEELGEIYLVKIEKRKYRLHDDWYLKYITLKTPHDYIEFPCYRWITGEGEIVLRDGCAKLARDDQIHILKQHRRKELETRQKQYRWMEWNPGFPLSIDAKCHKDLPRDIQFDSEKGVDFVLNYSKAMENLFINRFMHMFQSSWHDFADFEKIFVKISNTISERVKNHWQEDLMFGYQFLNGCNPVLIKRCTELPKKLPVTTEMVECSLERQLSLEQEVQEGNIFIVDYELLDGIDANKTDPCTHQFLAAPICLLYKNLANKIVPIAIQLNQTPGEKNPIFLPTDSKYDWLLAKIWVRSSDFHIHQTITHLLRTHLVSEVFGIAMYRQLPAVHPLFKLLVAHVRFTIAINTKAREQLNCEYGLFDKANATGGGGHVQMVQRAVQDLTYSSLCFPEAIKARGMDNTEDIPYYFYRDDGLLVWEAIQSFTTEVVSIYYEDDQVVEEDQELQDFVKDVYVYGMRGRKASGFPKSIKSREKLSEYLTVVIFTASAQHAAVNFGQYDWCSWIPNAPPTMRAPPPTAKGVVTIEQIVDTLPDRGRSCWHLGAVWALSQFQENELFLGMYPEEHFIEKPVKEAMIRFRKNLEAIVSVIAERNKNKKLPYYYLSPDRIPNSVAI
# Assay: Inhibition of 5-lipoxygenase (20,000×g supernatant from homogenized RBL-1 cells)
# Type: biochemical
# Details: in vitro, read-out: IC50 (concentration of compound producing 50% enzyme inhibition)
# Protocol: Inhibition of 5-lipoxygenase activity was determined using the 20,000×g supernatant from homogenized RBL-1 cells in a similiar manner as that described by Dyer and coworkers (Dyer, R. D.; Haviv., F.; Hanel, A. M.; Bornemeier, D. A.; Carter, G. W. Fed. Proc.,Fed.Am.Soc. Exp. Biol. 1984, 43,1462a). IC50 values (concentration of compound producing 50% enzyme inhibition) were calculated by linear regression analysis of percentage inhibition versus log inhibitor concentration plots.
row,IC50 [µM],Compound
1,6,"O=C1NCCN(c2cccc(Cl)c2)N1 [Example 78, 1-(3'-chlorophenyl)-2 H,4 H, tetrahydro-1,2,4-triazin-3-one]"
2,26,"O=C1NCCN(c2ccccn2)N1 [Example 90, 1-(2-pyridyl)-2H,4H-tetrahydro-1,2,4-triazin-3-one]"
3,1,"Cc1cccc(N2CCCC(=S)N2)c1 [Example 106, 1-(3'-methylphenyl)-2H-tetrahydro-pyridazin-3-thione]"
4,11,"N#Cc1cccc(N2CCCC(=O)N2)c1 [Example 1, 1-(3'-cyanophenyl)-2H-tetrahydropyridazin-3-one]"
5,5,"O=C1NCCN(c2cccc(Br)c2)N1 [Example 73, 1-(3'-bromophenyl)-2 H,4 H-tetrahydro-1,2,4-triazin-3-one]"
6,21,"O=C1NCCN(c2ccccc2)N1 [Example 68, 1-(phenyl)-2 H,4 H-tetrahydro-1,2,4-triazin-3-one]"
7,7,"CC(C)C1CN(c2ccccc2)NC(=O)N1 (racemic) [Example 82, D,L-5-i-propyl-1-phenyl-2H,4H-tetrahydro-1,2,4-triazin-3-one]"
8,1,"O=C1NCCN(c2cccc(OCc3ccccc3)c2)N1 [Example 79, 1-(3'-benzyloxyphenyl)-2 H,4 H-tetrahydro-1,2,4-triazin-3-one]"
9,6,"COc1cccc(N2CCCC(=O)N2)c1 [Example 3, 1-(3'-methoxyphenyl)-2H-tetrahydropyridazin-3-one]"
10,7,"CC1(C)CN(c2ccccc2)NC(=O)N1 [Example 87, 5,5-dimethyl-1-phenyl-2H,4H-tetrahydro-1,2,4-triazin-3-one]"
11,0.5,"CCCCC1CC(=O)NN(c2ccccc2)C1 (stereo not drawn) [Example 40, 1-phenyl-5-butyl-2H-tetrahydropyridazin-3-one]"
12,7,"CCC1CN(c2ccccc2)NC(=O)N1 (racemic) [Example 86, D,L-5-ethyl-1-phenyl-2H,4H-tetrahydro-1,2,4-triazin-3-one]"
13,2.5,"O=C1CCCN(c2cccc(Cl)c2)N1 [Example 46, 1-(3'-chlorophenyl)-2H-tetrahydropyridazin-3-one]"
14,2,"O=C1CCCN(c2ccc(Oc3ccccc3)cc2)N1 [Example 6, 1-(4'-phenoxyphenyl)-2H-tetrahydropyridazin-3-one]"
15,71,"O=C1CCCN(c2ccccc2)N1COCc1ccccc1 [Example 113, 1-phenyl-2-benzyloxymethyl-2 H-tetrahydropyridazin-3-one]"
16,3,"CC(=O)N1CCN(c2ccccc2)NC1=O [Example 107, 4-Acetyl-1-phenyl-2H,4H-tetrahydro-1,2,4-triazin-3-one]"
17,1,"O=C1CCCN(c2cc(Cl)cc(Cl)c2)N1 [Example 26, 1-(3',5'-dichlorophenyl)-2H-tetrahydropyridazin-3-one]"
18,8,"O=C1NN(c2ccccc2)CCN1Cc1ccccc1 [Example 99, 4-Benzyl-1-phenyl-2H,4H-tetrahydro-1,2,4-triazin-3-one]"
19,5,"O=C1CCCN(c2cccc(C(F)(F)F)c2)N1 [Example 8, 1-(3'-trifluoromethylphenyl)-2H-tetrahydropyridazin-3-one]"

row,IC50 [µM],Compound
1,13,"CCc1cccc(N2CCNC(=O)N2)c1 [Example 74, 1-(3'-ethylphenyl)-2 H,4 H-tetrahydro-1,2,4-triazin-3-one]"
2,1,"CC(C)C(=O)N1CCN(c2ccccc2)NC1=O [Example 109, 4-Isobutyryl-1-phenyl-2H,4H-tetrahydro-1,2,4-triazin-3-one]"
3,2,"CCCCC1CN(c2ccccc2)NC(=O)N1 (racemic) [Example 83, D,L-5-n-butyl-1-phenyl-2H 4H-tetrahydro-1,2,4-triazin-3-one]"
4,10,"O=C1CCCN(c2ccccc2F)N1 [Example 51, 1-(2'-fluorophenyl)-2H-tetrahydropyridazin-3-one]"
5,17,"S=C1NCCN(c2ccccc2)N1 [Example 102, 1-Phenyl-2H,4H-tetrahydro-1,2,4-triazin-3-thione]"
6,6,"CCCCCCCCc1ccc(N2CCCC(=O)N2)cc1 [Example 15, 1-(4'-octylphenyl)-2H-tetrahydropyridazin-3-one]"
7,0.6,"CCCCC1CCN(c2ccccc2)NC1=O (stereo not drawn) [Example 38, 1-phenyl-4-butyl-2H-tetrahydropyridazin-3-one]"
8,5,"CCOC(=O)c1cccc(N2CCCC(=O)N2)c1 [Example 16, 1-(3'-ethoxycarbonylphenyl)-2H-tetrahydropyridazin-3-one]"
9,19,"O=C1NCCN(c2cccc(F)c2)N1 [Example 88, 1-(3-fluorophenyl)-2H,4H-tetrahydro-1,2,4-triazin-3-one]"
10,3,"CCc1cccc(N2CCCC(=O)N2)c1 [Example 10, 1-(3'-ethylphenyl)-2H-tetrahydropyridazin-3-one]"
11,5,"S=C1NCCN(c2cccc(Cl)c2)N1 [Example 103, 1-(3-Chlorophenyl)-2H,4H-tetrahydro-1,2,4-triazin-3-thione]"
12,3,"Cc1cc(C)cc(N2CCCC(=O)N2)c1 [Example 24, 1-(3',5'-dimethylphenyl)-2H-tetrahydropyridazin-3-one]"
13,14,"CSc1cccc(N2CCNC(=O)N2)c1 [Example 75, 1-(3'-methylthiophenyl)-2 H,4 H-tetrahydro-1,2,4-triazin-3-one]"
14,3,"CC1CN(c2cccc(Cl)c2)NC(=O)N1 (racemic) [Example 85, D,L-5-methyl-1-(3-chlorophenyl)-2H,4H-tetrahydro-1,2,4-triazin-3-one]"
15,17,"O=C1NCCN(c2cccc(C(F)(F)F)c2)N1 [Example 76, 1-(3'-trifluoromethylphenyl)-2 H,4 H-tetrahydro-1,2,4-triazin-3-one]"
16,15,"Cc1cccc(N2CCNC(=O)N2)c1 [Example 70, 1-(3'-methylphenyl)-2 H,4 H-tetrahydro-1,2,4-triazin-3-one]"
17,12,"Cc1cc(C)cc(N2CCNC(=O)N2)c1 [Example 80, 1-(3',5'-dimethylphenyl)-2 H,4 H-tetrahydro-1,2,4-triazin-3-one]"
18,1,"CC(=O)N1CCN(c2cccc(Cl)c2)NC1=O [Example 111, 4-Acetyl-1-(3-chlorophenyl)-2H,4H-tetrahydro-1,2,4-triazin-3-one]"

# System: leukotriene biosynthesis
# Assay: In vivo inhibition of leukotriene biosynthesis after oral administration, rat peritoneal anaphylaxis model
# Details: 0.25 h, 200 micro mol/kg oral dose, one hour prior to antigen challenge, peritoneal fluid 15 minutes after challenge, vs mean of control group
# Protocol: Inhibition of the biosynthesis of leukotrienes in vivo after oral administration of compound was determined using a rat peritoneal anaphylaxis model in a similiar manner as that described by Young and coworkers (Young, P. R.; Dyer, R. D.; Carter, G. W. Fed. Proc., Fed. Am Soc.Exp. Biol. 1985, 44 1185). In this model rats were injected intraperitoneally (ip) with rabbit antibody to bovine serum albumin (BSA) and three hours later injected ip with BSA to induce an antigen-antibody response. Rats were sacrificed 15 minutes after this challenge and the peritoneal fluids were collected and analyzed for leukotriene levels. Test compounds were administered by gauge one hour prior to the antigen challenge. Percent inhibition values were determined by comparing the treatment group to the mean of the control group.
row,Compound,inhibition in vivo at 200 µmol/kg [%]
1,"O=C1NCCN(c2cccc(Cl)c2)N1 [Example 78, 1-(3'-chlorophenyl)-2 H,4 H, tetrahydro-1,2,4-triazin-3-one]",80
2,"O=C1NCCN(c2cccc(Br)c2)N1 [Example 73, 1-(3'-bromophenyl)-2 H,4 H-tetrahydro-1,2,4-triazin-3-one]",46
3,"O=C1NCCN(c2ccccc2)N1 [Example 68, 1-(phenyl)-2 H,4 H-tetrahydro-1,2,4-triazin-3-one]",85
4,"CCc1cccc(N2CCNC(=O)N2)c1 [Example 74, 1-(3'-ethylphenyl)-2 H,4 H-tetrahydro-1,2,4-triazin-3-one]",58
5,"CSc1cccc(N2CCNC(=O)N2)c1 [Example 75, 1-(3'-methylthiophenyl)-2 H,4 H-tetrahydro-1,2,4-triazin-3-one]",73
6,"Cc1cccc(N2CCNC(=O)N2)c1 [Example 70, 1-(3'-methylphenyl)-2 H,4 H-tetrahydro-1,2,4-triazin-3-one]",66
7,"CC1CN(c2ccccc2)NC(=O)N1 (racemic) [Example 81, D,L-5-methyl-1-phenyl-2H,4H-tetrahydro-1,2,4-triazin-3-one]",84
8,"CC(=O)N1CCN(c2cccc(Cl)c2)NC1=O [Example 111, 4-Acetyl-1-(3-chlorophenyl)-2H,4H-tetrahydro-1,2,4-triazin-3-one]",74
